These results are taken from PubChem BioAssay (NCI).

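Cells were grown in 96-well plates and exposed to each compound for 48 hours at five concentrations; endpoints were interpolated linearly between bracketing concentrations, or set to the highest concentration if not reached. TGI: total growth inhibition.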

Among the test systems are HOP-62 NSCLC; T-47D breast; SK-MEL-5 melanoma; DU-145 prostate; HOP-92 NSCLC; RPMI-8226 leukemia; SNB-19 CNS; NCI-H226 lung; MDA-MB-435; OVCAR-8 ovarian; UACC-257 melanoma; HCT-116 colon; HS 578T breast; BT-549 breast; MCF7 breast; SK-OV-3 ovarian; HCT-15 colon; IGROV1 ovarian; MDA-N; MALME-3M melanoma.
Assay in all cases: inhibition of tumour cell growth, NCI panel, 48 h

As for `C/C=N\n1c(C)c(C#N)c(C#N)c1N`, the TGI in the test on HOP-62 NSCLC, in the test on T-47D breast, with SK-MEL-5 melanoma, in the test with DU-145 prostate, in the test on HOP-92 NSCLC and with RPMI-8226 leukemia was more than 100 µM throughout. In addition, the TGI with SNB-19 CNS, in the test with NCI-H226 lung, with MDA-MB-435, in the test on OVCAR-8 ovarian, with UACC-257 melanoma and with HCT-116 colon was more than 100 µM each time. Besides, the TGI in the test with HS 578T breast, in the test on BT-549 breast, with MCF7 breast, with SK-OV-3 ovarian, in the test with HCT-15 colon and in the test with IGROV1 ovarian was more than 100 µM each time. The TGI in the test on MDA-N and in the test with MALME-3M melanoma was more than 100 µM throughout.
Turning to `O=[N+]([O-])C(=C(N1CCCCC1)N1CCCCC1)/C(Cl)=C(\Cl)[N+](=O)[O-]`, the TGI in the test with HOP-62 NSCLC worked out at 31.4 µM; with T-47D breast, 3.88 µM; with SK-MEL-5 melanoma it was 11 µM; in the test with DU-145 prostate it was 7.72 µM; in the test with HOP-92 NSCLC, 6.6 µM; with RPMI-8226 leukemia, 13.7 µM. For the same molecule, the TGI stood at 36 µM in the test with SNB-19 CNS; 45.7 µM in the test with NCI-H226 lung; 19.3 µM with MDA-MB-435; 23.2 µM with OVCAR-8 ovarian; 15.5 µM with UACC-257 melanoma; 7.54 µM in the test with HCT-116 colon. The TGI was 11.6 µM in the test on HS 578T breast; 19 µM in the test on BT-549 breast; 7.06 µM in the test on MCF7 breast; more than 59.8 µM in the test on SK-OV-3 ovarian; 5.48 µM with HCT-15 colon; 3.29 µM with IGROV1 ovarian. In addition, the TGI with MDA-N was determined as 13.3 µM; in the test on MALME-3M melanoma, 6.28 µM.
For the molecule `C[C@]12CC[C@H]3[C@@H](CCC4=CC(=O)CC[C@@]43C)[C@@H]1CC[C@@H]2C(=O)Nc1ccc([N+](=O)[O-])c(C(F)(F)F)c1`, the TGI in the test with HOP-62 NSCLC is 67.1 µM; in the test with T-47D breast, 37.8 µM; with SK-MEL-5 melanoma, 32.5 µM; in the test with DU-145 prostate, 42.3 µM; in the test on HOP-92 NSCLC, 58.2 µM; in the test with RPMI-8226 leukemia, more than 100 µM. Further, the TGI in the test on SNB-19 CNS is 36.8 µM; with NCI-H226 lung, 39 µM; in the test with MDA-MB-435, 32.3 µM; in the test with OVCAR-8 ovarian, 90.9 µM; with UACC-257 melanoma it was more than 10 µM; with HCT-116 colon, 32.2 µM. For the same molecule, the TGI is 38.4 µM with HS 578T breast; 35.6 µM in the test on BT-549 breast; 30.5 µM with MCF7 breast; 25.4 µM in the test with SK-OV-3 ovarian; 25.7 µM in the test on HCT-15 colon; 43.7 µM with IGROV1 ovarian. The values for the TGI in the test on MDA-N and with MALME-3M melanoma were more than 10 µM and 31.2 µM, respectively.
For `CCC1c2[nH]c3ccccc3c2C[C@H]2C(=O)NC(CCCCNC(=O)OC(C)(C)C)C(=O)N12` (some centres undefined), the TGI was more than 100 µM in the test with HOP-62 NSCLC; more than 100 µM in the test with T-47D breast; 38.8 µM in the test with SK-MEL-5 melanoma; more than 100 µM in the test on DU-145 prostate; 94.4 µM in the test on HOP-92 NSCLC; 63.3 µM with RPMI-8226 leukemia. The TGI in the test with SNB-19 CNS is more than 100 µM; in the test on NCI-H226 lung it was more than 100 µM; in the test with MDA-MB-435, 44.3 µM; in the test with OVCAR-8 ovarian, more than 100 µM; with UACC-257 melanoma it was 66.8 µM; in the test on HCT-116 colon, 94.4 µM. Also, the TGI in the test on HS 578T breast was 76.2 µM; with BT-549 breast, 58.2 µM; with MCF7 breast, more than 100 µM; in the test with SK-OV-3 ovarian, more than 100 µM; in the test with HCT-15 colon, more than 100 µM; in the test on IGROV1 ovarian, more than 100 µM. Also, the TGI came to 54.9 µM in the test on MDA-N and 50.5 µM in the test with MALME-3M melanoma.
In the case of `CC1OC(OC2C(CO)OC(O[C@H]3CC[C@@]4(C)C(=CC[C@H]5[C@@H]6C[C@@H]7O[C@](O)(CC[C@H](C)COC8OC(CO)C(O)C(O)C8O)[C@@H](C)[C@@H]7[C@@]6(C)CC[C@@H]54)C3)C(OC3OC(C)C(O)C(O)C3O)C2O)C(O)C(O)C1O` (some centres undefined), the TGI with HOP-62 NSCLC is 6.04 µM; in the test on T-47D breast it was 17 µM; in the test on SK-MEL-5 melanoma, more than 32.8 µM; with DU-145 prostate it was 5.92 µM; in the test on HOP-92 NSCLC, 12.7 µM; in the test with RPMI-8226 leukemia, 17.4 µM. Besides, the TGI in the test on SNB-19 CNS was 8.65 µM; with NCI-H226 lung, 85 µM; in the test with MDA-MB-435, 7.03 µM; in the test on OVCAR-8 ovarian, 28.9 µM; in the test on UACC-257 melanoma, more than 49.9 µM; with HCT-116 colon, more than 32.1 µM. In addition, the TGI was 6.71 µM in the test on HS 578T breast; 18 µM in the test with BT-549 breast; more than 65.5 µM in the test with MCF7 breast; 6.12 µM in the test on SK-OV-3 ovarian; 10 µM in the test on HCT-15 colon; 23.1 µM in the test with IGROV1 ovarian. Further, the TGI with MDA-N amounted to 11.3 µM; in the test with MALME-3M melanoma, 18.9 µM.
Regarding `NCCCCN(CCCN)Cc1ccc2ccccc2c1`, the TGI was more than 100 µM in the test with T-47D breast; more than 100 µM with SK-MEL-5 melanoma; more than 100 µM with DU-145 prostate; more than 100 µM in the test with HOP-92 NSCLC; more than 100 µM in the test on RPMI-8226 leukemia; 55 µM in the test on SNB-19 CNS. Further, the TGI is more than 100 µM in the test on NCI-H226 lung; more than 100 µM in the test with MDA-MB-435; more than 100 µM with OVCAR-8 ovarian; more than 100 µM in the test with UACC-257 melanoma; more than 100 µM in the test with HCT-116 colon; 42.9 µM with HS 578T breast. For the same molecule, the TGI is more than 100 µM in the test with BT-549 breast; more than 100 µM with MCF7 breast; more than 100 µM in the test on SK-OV-3 ovarian; more than 100 µM with HCT-15 colon; more than 100 µM in the test on IGROV1 ovarian; 51.7 µM in the test on MDA-N. The molecule also displayed a TGI with MALME-3M melanoma of more than 100 µM.
